Reference: patent publication US20230105869A1, “C5aR INHIBITOR REDUCTION OF URINARY sCD163” (CHEMOCENTRYX, INC., priority 2017, published 2023)
Entries after “also recorded” stand apart in the source; their conditions may differ. Marks after values point to notes of the source that are not given here.

Assays:
[1] = system: urinary sCD163; experiment: Urine sCD163/creatinine ratio (ELISA) in clinical trial of AAV patients; format: in vivo, human; conditions: for Urine sCD163/creatinine, Geo mean: all on IV cyclophosphamide or rituximab; for Time course of decrease of urine sCD163 (sCD163/creatinine), in words: versus baseline
Experimental: The clinical trial results presented herein comprised 3 patient groups: (1) Full dose prednisone (60 mg), standard of care; (2) Avacopan 30 mg b.i.d. plus low dose prednisone (20 mg); (3) Avacopan 30 mg b.i.d. plus no prednisone. All patients received either IV cyclophosphamide or IV rituximab. sCD163 (ELISA) and creatinine were measured pre-dose, and at days 8, 15, 29, 57, and 85. The groupings are further described below in Table 1. [table] Mid-stream urine samples were collected with a clean catch method and were shipped to the central laboratory refrigerated the same day for analysis of creatinine, albumin and UACR. Another fraction of urine was centrifuged at 1200 g and 2-8° C. for 10 minutes. Supernatant was aliquoted into cryovials and stored at -70° C. until analysis. Urine sCD163 and MCP-1 were analyzed by ELISA in complete subject sets using ELISA kits from R&D systems. Urine sCD163/creatinine ratios, UACR, and urine MCP-1/creatinine ratios were log transformed for normal distribution. Change from baseline in urine sCD163/creatinine ratios for each time point within group was analyzed by the mixed effects model for repeated measures. P<0.05 was considered as statistically significant.

[2] = system: ANCA-associated vasculitis (AAV); experiment: Disease activity and health-related quality of life in clinical trial of AAV patients; format: in vivo, human
Experimental: The clinical trial results presented herein comprised 3 patient groups: (1) Full dose prednisone (60 mg), standard of care; (2) Avacopan 30 mg b.i.d. plus low dose prednisone (20 mg); (3) Avacopan 30 mg b.i.d. plus no prednisone. All patients received either IV cyclophosphamide or IV rituximab. sCD163 (ELISA) and creatinine were measured pre-dose, and at days 8, 15, 29, 57, and 85. The groupings are further described below in Table 1. [table] […] Panel A plots the Birmingham Vasculitis Activity Score; Panel B plots the Urinary Albumin: creatinine Ratio; Panel C plots the Health-related quality-of-life measurement EQ-5D-5L visual analog scale , expressed as mean +/- SEM over the treatment period; Panel D and Panel E plot the health-related quality-of-life measurement Medical Outcomes Study SF-36 version 2 Physical Functioning and Role Emotional components, expressed as mean +/- SEM over the treatment period.

[3] = D8, Avacopan 30 mg BID where given
[4] = D15, Avacopan 30 mg BID where given
[5] = D29, Avacopan 30 mg BID where given
[6] = D57, Avacopan 30 mg BID where given
[7] = D85, Avacopan 30 mg BID where given

Row | SMILES | Urine sCD163/creatinine, Geo mean [1, 3] | Urine sCD163/creatinine, Geo mean [1, 4] | Urine sCD163/creatinine, Geo mean [1, 5] | Urine sCD163/creatinine, Geo mean [1, 6] | Urine sCD163/creatinine, Geo mean [1, 7] | Time course of decrease of urine sCD163 (sCD163/creatinine), in words [1] | Time course of decrease of urine sCD163 (sCD163/creatinine), in words ([1]; listed as full-dose prednisone) | Disease activity (Birmingham Vasculitis Activity Score), in words ([2]; FIG. 1A) | Health-related quality of life (EQ-5D-5L, SF-36 v2), in words ([2]; FIGS. 1C-1E)
1 | C[C@]12C=CC(=O)C=C1CC[C@@H]1[C@@H]2C(=O)C[C@@]2(C)[C@H]1CC[C@]2(O)C(=O)CO [Placebo + FD Prednisone, Prednisone, reference compound] | 300 ng/mmol | 249 ng/mmol | 220 ng/mmol | 116*** ng/mmole | 120** ng/mmole | decreased much later (by week 8) | did not show improvement in urinary sCD163 until day 57 |  | 
2 | Cc1ccc(NC(=O)[C@H]2CCCN(C(=O)c3c(C)cccc3F)[C@H]2c2ccc(NC3CCCC3)cc2)cc1C(F)(F)F [Avacopan] | 180* ng/mmole | 165* ng/mmole | 117** ng/mmole | 125* ng/mmole | 97* ng/mmole | reduced sCD163/creatinine markedly by day 8; also recorded: rapid reduction of sCD163; also recorded: decreased within one week |  | rapid decrease in diseases activity | significant improvement in health-related quality of life
